In article PMC5218480 (PLoS ONE, 2017):

System: MV-4-11 cells
Assay: Gene expression microarray analysis (Affymetrix PrimeView) and GSEA
Type: cell-based, human
Set-up: RFU PODN (11730768_x_at) / Fold change /veh PODN (11730768_x_at) / RFU LINC00158 (11744669_a_at) / Fold change /veh LINC00158 (11744669_a_at) / RFU DUSP10 (11751237_a_at) / Fold change /veh DUSP10 (11751237_a_at) / RFU ID3 (11757404_x_at) / Fold change /veh ID3 (11757404_x_at) / RFU PLEKHG5 (11737974_s_at) / Fold change /veh PLEKHG5 (11737974_s_at) / RFU LRRC4B (11730491_at) / Fold change /veh LRRC4B (11730491_at) / RFU GIMAP4 (11747438_a_at) / Fold change /veh GIMAP4 (11747438_a_at) / RFU KRT8 (11758183_x_at) / Fold change /veh KRT8 (11758183_x_at) / RFU CNN1 (11734310_a_at) / Fold change /veh CNN1 (11734310_a_at) / RFU VPS37D (11726825_at) / Fold change /veh VPS37D (11726825_at) / RFU C10orf10 (11716522_x_at) / Fold change /veh C10orf10 (11716522_x_at) / RFU KIR2DL2 /// KIR2DL4 /// KIR2DL5A /// KIR2DL5B /// KIR2DS1 /// KIR2DS2 /// KIR2DS3 /// KIR2DS4 /// KIR3DL3 /// KIR3DL3 /// KIR3DS1 (11738374_at) / Fold change /veh KIR2DL2 /// KIR2DL4 /// KIR2DL5A /// KIR2DL5B /// KIR2DS1 /// KIR2DS2 /// KIR2DS3 /// KIR2DS4 /// KIR3DL3 /// KIR3DL3 /// KIR3DS1 (11738374_at) / RFU C1QL1 (11718748_at) / Fold change /veh C1QL1 (11718748_at) / RFU TMPRSS4 (11747572_a_at) / Fold change /veh TMPRSS4 (11747572_a_at) / RFU HAMP (11756126_x_at) / Fold change /veh HAMP (11756126_x_at) / RFU RNFT2 (11725882_a_at) / Fold change /veh RNFT2 (11725882_a_at) / RFU NR4A2 (11747474_a_at) / Fold change /veh NR4A2 (11747474_a_at) / RFU ABCC12 (11746883_a_at) / Fold change /veh ABCC12 (11746883_a_at) / RFU TMEM136 (11760407_x_at) / Fold change /veh TMEM136 (11760407_x_at) / RFU CLDN22 /// WWC2 (11732394_at) / Fold change /veh CLDN22 /// WWC2 (11732394_at) / RFU HLA-DPB1 (11760878_x_at) / Fold change /veh HLA-DPB1 (11760878_x_at) / RFU SPINT1 (11716480_a_at) / Fold change /veh SPINT1 (11716480_a_at) / RFU GAP43 (11754022_s_at) / Fold change /veh GAP43 (11754022_s_at) / RFU A4GNT (11735810_at) / Fold change /veh A4GNT (11735810_at) / RFU PRB3 (11715151_x_at) / Fold change /veh PRB3 (11715151_x_at) / RFU TUBB4B (11761932_at) / Fold change /veh TUBB4B (11761932_at) / RFU CAPN14 (11732068_a_at) / Fold change /veh CAPN14 (11732068_a_at) / RFU TMCC2 (11721928_a_at) / Fold change /veh TMCC2 (11721928_a_at) / RFU IRGQ (11745062_a_at) / Fold change /veh IRGQ (11745062_a_at) / RFU FAM174B (11720279_a_at) / Fold change /veh FAM174B (11720279_a_at) / RFU TMPRSS4 (11748680_a_at) / Fold change /veh TMPRSS4 (11748680_a_at) / RFU FAM212B (11763350_a_at) / Fold change /veh FAM212B (11763350_a_at) / RFU PLEKHG5 (11743358_a_at) / Fold change /veh PLEKHG5 (11743358_a_at) / RFU ZSCAN30 (11745921_a_at) / Fold change /veh ZSCAN30 (11745921_a_at) / RFU CMKLR1 (11741424_a_at) / Fold change /veh CMKLR1 (11741424_a_at) / RFU LOC101060620 /// MAPK8IP1 (11723275_at) / Fold change /veh LOC101060620 /// MAPK8IP1 (11723275_at) / RFU SPTSSB (11747773_x_at) / Fold change /veh SPTSSB (11747773_x_at) / RFU PRSS12 (11739890_at) / Fold change /veh PRSS12 (11739890_at) / RFU BIN1 (11741810_x_at) / Fold change /veh BIN1 (11741810_x_at) / RFU WNT11 (11732464_a_at) / Fold change /veh WNT11 (11732464_a_at) / RFU C10orf10 (11716521_a_at) / Fold change /veh C10orf10 (11716521_a_at) / RFU C5orf56 (11738089_at) / Fold change /veh C5orf56 (11738089_at) / RFU CYB561 (11721691_x_at) / Fold change /veh CYB561 (11721691_x_at) / RFU ANKRD19P (11752326_a_at) / Fold change /veh ANKRD19P (11752326_a_at) / RFU OR2T12 /// OR2T33 /// OR2T8 (11738714_s_at) / Fold change /veh OR2T12 /// OR2T33 /// OR2T8 (11738714_s_at) / RFU VCAN (11748164_a_at) / Fold change /veh VCAN (11748164_a_at) / RFU JSRP1 (11732532_at) / Fold change /veh JSRP1 (11732532_at) / RFU KRTAP10-11 (11738290_x_at) / Fold change /veh KRTAP10-11 (11738290_x_at) / RFU MYO3A (11730013_a_at) / Fold change /veh MYO3A (11730013_a_at) / RFU EBF3 (11725865_a_at) / Fold change /veh EBF3 (11725865_a_at) / RFU CAMK2N1 (11719241_x_at) / Fold change /veh CAMK2N1 (11719241_x_at) / RFU C5orf56 (11738088_a_at) / Fold change /veh C5orf56 (11738088_a_at) / RFU OLFML3 (11715873_a_at) / Fold change /veh OLFML3 (11715873_a_at) / RFU LOC100653217 /// NTM (11731650_a_at) / Fold change /veh LOC100653217 /// NTM (11731650_a_at) / RFU MAPK11 (11762145_a_at) / Fold change /veh MAPK11 (11762145_a_at) / RFU FIZ1 (11724087_x_at) / Fold change /veh FIZ1 (11724087_x_at) / RFU OASL (11726364_x_at) / Fold change /veh OASL (11726364_x_at) / RFU SOX15 (11748057_x_at) / Fold change /veh SOX15 (11748057_x_at) / RFU CD79A (11719716_a_at) / Fold change /veh CD79A (11719716_a_at) / RFU HIST1H1D (11736915_at) / Fold change /veh HIST1H1D (11736915_at) / RFU CASKIN2 (11723855_a_at) / Fold change /veh CASKIN2 (11723855_a_at) / RFU LOC730098 (11760151_x_at) / Fold change /veh LOC730098 (11760151_x_at) / RFU OR4N2 (11742367_at) / Fold change /veh OR4N2 (11742367_at) / RFU PRRT2 (11749266_a_at) / Fold change /veh PRRT2 (11749266_a_at) / RFU SNX32 (11753110_a_at) / Fold change /veh SNX32 (11753110_a_at) / RFU CDHR5 (11726645_a_at) / Fold change /veh CDHR5 (11726645_a_at) / RFU RCAN1 (11760418_a_at) / Fold change /veh RCAN1 (11760418_a_at) / RFU FAM167A (11723789_a_at) / Fold change /veh FAM167A (11723789_a_at) / RFU FAM26E (11764081_at) / Fold change /veh FAM26E (11764081_at) / RFU ISYNA1 (11749810_s_at) / Fold change /veh ISYNA1 (11749810_s_at) / RFU ACY1 (11761880_at) / Fold change /veh ACY1 (11761880_at) / RFU 11764098_at / Fold change /veh 11764098_at / RFU SAMD14 (11745864_x_at) / Fold change /veh SAMD14 (11745864_x_at) / RFU NPB (11741838_a_at) / Fold change /veh NPB (11741838_a_at) / RFU TMPRSS6 (11731388_a_at) / Fold change /veh TMPRSS6 (11731388_a_at) / RFU KRTAP10-2 (11738614_at) / Fold change /veh KRTAP10-2 (11738614_at) / RFU ARHGAP8 /// PRR5-ARHGAP8 (11727945_x_at) / Fold change /veh ARHGAP8 /// PRR5-ARHGAP8 (11727945_x_at) / RFU KRTAP5-7 /// NADSYN1 (11734609_at) / Fold change /veh KRTAP5-7 /// NADSYN1 (11734609_at) / RFU RASL12 (11751679_a_at) / Fold change /veh RASL12 (11751679_a_at) / RFU CDKN2B (11736163_a_at) / Fold change /veh CDKN2B (11736163_a_at) / RFU PRF1 (11729649_at) / Fold change /veh PRF1 (11729649_at) / RFU, ZNF638 /// ZNF638-IT1 / Fold change vs veh, ZNF638 /// ZNF638-IT1 / RFU, PANK3 / Fold change vs veh, PANK3 / RFU, SH3YL1 / Fold change vs veh, SH3YL1 / RFU, ZEB2 / Fold change vs veh, ZEB2 / RFU, NRIP1 / Fold change vs veh, NRIP1 / RFU, PTTG1IP / Fold change vs veh, PTTG1IP / RFU, CAPN2 / Fold change vs veh, CAPN2 / RFU, MED14 / Fold change vs veh, MED14 / RFU, SNORA58 / Fold change vs veh, SNORA58 / RFU, C1orf63 / Fold change vs veh, C1orf63 / RFU, LRRFIP1 / Fold change vs veh, LRRFIP1 / RFU, NDUFAF7 / Fold change vs veh, NDUFAF7 / RFU, SLC12A2 / Fold change vs veh, SLC12A2 / RFU, IBTK / Fold change vs veh, IBTK / RFU, ESF1 / Fold change vs veh, ESF1 / Fold change vs veh, TMEM50B / RFU, TAOK1 / Fold change vs veh, TAOK1 / RFU, ACBD3 / Fold change vs veh, ACBD3 / RFU, TMA16 / Fold change vs veh, TMA16 / RFU, RWDD3 / Fold change vs veh, RWDD3 / RFU, BCAT1 / Fold change vs veh, BCAT1 / RFU, EDEM3 / Fold change vs veh, EDEM3 / RFU, TMEM33 / Fold change vs veh, TMEM33 / RFU, WDR75 / Fold change vs veh, WDR75 / RFU, AHCTF1 / Fold change vs veh, AHCTF1 / RFU, TFRC / Fold change vs veh, TFRC / RFU, ZDHHC17 / Fold change vs veh, ZDHHC17 / RFU, NOM1 / Fold change vs veh, NOM1 / RFU, ARL8B / Fold change vs veh, ARL8B / RFU, ZBTB11 / Fold change vs veh, ZBTB11 / RFU, TAMM41 / Fold change vs veh, TAMM41 / RFU, KIAA1704 /// LOC100996395 / Fold change vs veh, KIAA1704 /// LOC100996395 / RFU, ING1 / Fold change vs veh, ING1 / RFU, TRMT61B / Fold change vs veh, TRMT61B / RFU, FUBP3 / Fold change vs veh, FUBP3 / RFU, TP53 / Fold change vs veh, TP53 / RFU, TNKS2 / Fold change vs veh, TNKS2 / RFU, ZFP14 / Fold change vs veh, ZFP14 / RFU, ACTR2 / Fold change vs veh, ACTR2 / RFU, PPP3R1 / Fold change vs veh, PPP3R1 / RFU, PIK3R1 / Fold change vs veh, PIK3R1 / RFU, HNRNPA1 / Fold change vs veh, HNRNPA1 / RFU, RNF170 / Fold change vs veh, RNF170 / RFU, ZNF28 / Fold change vs veh, ZNF28 / RFU, RNGTT / Fold change vs veh, RNGTT / RFU, OGT / Fold change vs veh, OGT / RFU, BRD1 / Fold change vs veh, BRD1 / RFU, MARS / Fold change vs veh, MARS / RFU, ZNF655 / Fold change vs veh, ZNF655 / RFU, FAHD1 / Fold change vs veh, FAHD1 / RFU, BDP1 / Fold change vs veh, BDP1 / RFU, LRRCC1 / Fold change vs veh, LRRCC1 / RFU, ARID1A / Fold change vs veh, ARID1A / RFU, ZNF146 / Fold change vs veh, ZNF146 / RFU, ZNF330 / Fold change vs veh, ZNF330 / RFU, GPN3 / Fold change vs veh, GPN3 / RFU, C9orf123 / Fold change vs veh, C9orf123 / RFU, N4BP2L2 / Fold change vs veh, N4BP2L2 / RFU, ARFIP1 / Fold change vs veh, ARFIP1 / RFU, FAM179B / Fold change vs veh, FAM179B / RFU, BCL10 / Fold change vs veh, BCL10 / RFU, UHRF1BP1L / Fold change vs veh, UHRF1BP1L / RFU, BET1 / Fold change vs veh, BET1 / RFU, CNOT2 / Fold change vs veh, CNOT2 / RFU, ZNF268 / Fold change vs veh, ZNF268 / Fold change vs veh, ZNF507 / RFU, DGCR2 / Fold change vs veh, DGCR2 / RFU, WDSUB1 / Fold change vs veh, WDSUB1 / Fold change vs veh, HSP90B1 /// MIR3652 / RFU, ADSS / Fold change vs veh, ADSS / RFU, GK / Fold change vs veh, GK / RFU, ZNF148 / Fold change vs veh, ZNF148 / RFU, TAF9 / Fold change vs veh, TAF9 / RFU, SLC1A5 / Fold change vs veh, SLC1A5 / RFU, SLMO2 / Fold change vs veh, SLMO2 / RFU, ABCC4 / Fold change vs veh, ABCC4 / RFU, LOC101060439 /// RAP1B / Fold change vs veh, LOC101060439 /// RAP1B / RFU, RFX7 / Fold change vs veh, RFX7 / RFU, GTPBP10 / Fold change vs veh, GTPBP10 / RFU, CNEP1R1 / Fold change vs veh, CNEP1R1 / RFU, BIVM-ERCC5 /// ERCC5 / Fold change vs veh, BIVM-ERCC5 /// ERCC5 / RFU, ILF3 / Fold change vs veh, ILF3 / RFU 11762660_at / Fold change /veh 11762660_at / RFU VCAN (11757783_s_at) / Fold change /veh VCAN (11757783_s_at) / RFU DDX43 (11728927_at) / Fold change /veh DDX43 (11728927_at) / RFU KRT8 (11758188_x_at) / Fold change /veh KRT8 (11758188_x_at) / RFU NKD1 (11759106_at) / Fold change /veh NKD1 (11759106_at) / RFU SRD5A1 (11742802_a_at) / Fold change /veh SRD5A1 (11742802_a_at) / RFU TPSAB1 /// TPSB2 (11721975_s_at) / Fold change /veh TPSAB1 /// TPSB2 (11721975_s_at) / RFU GSTM3 (11746129_a_at) / Fold change /veh GSTM3 (11746129_a_at) / RFU IL23R (11737362_x_at) / Fold change /veh IL23R (11737362_x_at) / RFU TMEM51 (11727254_a_at) / Fold change /veh TMEM51 (11727254_a_at) / RFU PIWIL2 (11732686_x_at) / Fold change /veh PIWIL2 (11732686_x_at) / RFU ORM1 (11744905_x_at) / Fold change /veh ORM1 (11744905_x_at) / RFU CCDC152 (11743942_at) / Fold change /veh CCDC152 (11743942_at) / RFU ECM1 (11717891_a_at) / Fold change /veh ECM1 (11717891_a_at) / RFU IL23R (11748794_a_at) / Fold change /veh IL23R (11748794_a_at) / RFU TNFAIP8L3 (11732012_x_at) / Fold change /veh TNFAIP8L3 (11732012_x_at) / RFU MBOAT4 (11741988_at) / Fold change /veh MBOAT4 (11741988_at) / RFU 11764193_at / Fold change /veh 11764193_at / RFU TMEM53 (11763286_at) / Fold change /veh TMEM53 (11763286_at) / RFU MAGEB2 (11727129_at) / Fold change /veh MAGEB2 (11727129_at) / RFU TMEM200A (11744735_a_at) / Fold change /veh TMEM200A (11744735_a_at) / RFU CCDC152 (11751479_a_at) / Fold change /veh CCDC152 (11751479_a_at) / RFU FAM211A (11726209_a_at) / Fold change /veh FAM211A (11726209_a_at) / RFU RGS16 (11746705_a_at) / Fold change /veh RGS16 (11746705_a_at) / RFU VCAN (11755009_s_at) / Fold change /veh VCAN (11755009_s_at) / RFU RHOB (11743442_s_at) / Fold change /veh RHOB (11743442_s_at) / RFU RGS16 (11720943_a_at) / Fold change /veh RGS16 (11720943_a_at) / RFU RGS16 (11720944_at) / Fold change /veh RGS16 (11720944_at) / RFU, VPS4B / Fold change vs veh, VPS4B / RFU, CREB1 / Fold change vs veh, CREB1 / RFU, DNAJC13 / Fold change vs veh, DNAJC13 / RFU, GNAQ / Fold change vs veh, GNAQ / RFU, CDK5R1 / Fold change vs veh, CDK5R1 / RFU, ZRANB3 / Fold change vs veh, ZRANB3 / RFU, CUL4A / Fold change vs veh, CUL4A / RFU, CCNY / Fold change vs veh, CCNY / RFU, UFL1 / Fold change vs veh, UFL1 / RFU, COG3 / Fold change vs veh, COG3 / RFU, DIAPH2 / Fold change vs veh, DIAPH2 / RFU, SKA2 / Fold change vs veh, SKA2 / RFU, AFF3 / Fold change vs veh, AFF3 / RFU, LMF1 / Fold change vs veh, LMF1 / RFU, IPO11 / Fold change vs veh, IPO11 / RFU, DFFB / Fold change vs veh, DFFB / RFU, FOXP1 / Fold change vs veh, FOXP1 / RFU, CARD8 / Fold change vs veh, CARD8 / RFU, STRN3 / Fold change vs veh, STRN3 / RFU, ADK / Fold change vs veh, ADK / RFU, RASSF2 / Fold change vs veh, RASSF2 / RFU, WIPF1 / Fold change vs veh, WIPF1 / RFU, LARP1B / Fold change vs veh, LARP1B / RFU, RASA1 / Fold change vs veh, RASA1 / RFU, RB1 / Fold change vs veh, RB1 / RFU, PPFIA1 / Fold change vs veh, PPFIA1 / RFU, MAT2A / Fold change vs veh, MAT2A / RFU, CCT5 / Fold change vs veh, CCT5 / RFU, WDR92 / Fold change vs veh, WDR92 / RFU, CUX1 / Fold change vs veh, CUX1 / RFU, TTC7A / Fold change vs veh, TTC7A / RFU, TMEM135 / Fold change vs veh, TMEM135 / RFU, DEPTOR / Fold change vs veh, DEPTOR / RFU, CPM / Fold change vs veh, CPM / RFU, DNAJB6 / Fold change vs veh, DNAJB6 / RFU, CACNA2D3 / Fold change vs veh, CACNA2D3 / RFU, DTX4 / Fold change vs veh, DTX4 / RFU, TFCP2 / Fold change vs veh, TFCP2 / RFU, GMCL1 /// GMCL1P1 / Fold change vs veh, GMCL1 /// GMCL1P1 / RFU, AEBP2 / Fold change vs veh, AEBP2 / RFU, SNHG1 /// SNORD22 /// SNORD25 /// SNORD26 /// SNORD27 /// SNORD28 /// SNORD29 /// SNORD31 / Fold change vs veh, SNHG1 /// SNORD22 /// SNORD25 /// SNORD26 /// SNORD27 /// SNORD28 /// SNORD29 /// SNORD31 / Fold change (Aza/veh), C12orf56 (ProbeSet 11735607_a_at) / Fold change (ACY-1035/veh), C12orf56 (ProbeSet 11735607_a_at) / Fold change (Aza/veh), FGFR1OP (ProbeSet 11751329_s_at) / Fold change (ACY-1035/veh), FGFR1OP (ProbeSet 11751329_s_at) / Fold change (Aza/veh), VPS36 (ProbeSet 11739960_a_at) / Fold change (ACY-1035/veh), VPS36 (ProbeSet 11739960_a_at) / RFU SYPL1 (11715823_x_at) / Fold change /veh SYPL1 (11715823_x_at) / RFU IGFBP7 (11715501_s_at) / Fold change /veh IGFBP7 (11715501_s_at) / RFU REEP3 (11722064_at) / Fold change /veh REEP3 (11722064_at) / RFU IGLL1 (11728026_x_at) / Fold change /veh IGLL1 (11728026_x_at): dose or concentration left out as unconfirmed
Conditions: ProbeSet 11726703_a_at; LIST B

Nc1ccc(-c2cccs2)cc1NC(=O)c1ccc2c(c1)cc(C1CC1)n2CCN1CCOCC1 [ACY-1035]
Fold change vs veh, BCL10: 0.84
